Results: the supplement of paper PMC10307832

What was measured:
Assay in all cases: relative viability (nuclei count vs DMSO), 5 days (fraction); higher = more cells survive
[1] = compound: CN[C@@H]1C[C@H]2O[C@@](C)([C@@H]1OC)n1c3ccccc3c3c4c(c5c6ccccc6n2c5c31)C(=O)NC4 [Staurosporine] + COc1cc2c(Oc3ccc(NC(=O)C4(C(=O)Nc5ccc(F)cc5)CC4)cc3F)ccnc2cc1OCCCN1CCOCC1 [Foretinib] (partner 0.25 µM)
Summary of the method: (§1)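 One day after seeding in 1536-well plates, lung cancer cell lines were dosed by pin tool. Dosing was either single-drug or a fixed anchor-drug dose plus five library-drug doses (not always all listed) in √10 steps. After 5 days, nuclei were stained in one fix-and-stain step and counted on 4× images, and relative viability is the nuclei count of treated wells over that of vehicle wells, given as the median of duplicate plates.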

[2] = compound: O=c1[nH]cc(F)c(=O)[nH]1 [5-Fluorouracil] + CC(C)C[C@H](NC(=O)[C@H](Cc1ccccc1)NC(=O)c1cnccn1)B(O)O [Bortezomib] (partner 0.002 µM)
Summary of the method: as §1

Sulindac + Foretinib = compound: CC1=C(CC(=O)O)c2cc(F)ccc2/C1=C\c1ccc([S+](C)[O-])cc1 [Sulindac] + COc1cc2c(Oc3ccc(NC(=O)C4(C(=O)Nc5ccc(F)cc5)CC4)cc3F)ccnc2cc1OCCCN1CCOCC1 [Foretinib] (partner 0.25 µM)
Summary of the method: as §1

[3] = compound: O=c1[nH]cc(F)c(=O)[nH]1 [5-Fluorouracil] + CCNC(=O)c1noc(-c2cc(C(C)C)c(O)cc2O)c1-c1ccc(CN2CCOCC2)cc1 [Luminespib] (partner 0.01 µM)
Summary of the method: as §1

Row | Cell Line | relative viability ([1]; first compound 0.005 µM) | relative viability ([1]; first compound 0.01581 µM) | relative viability ([1]; first compound 0.05 µM) | relative viability ([1]; first compound 0.1581 µM) | relative viability ([1]; first compound 0.5 µM) | relative viability ([2]; first compound 0.02 µM) | relative viability ([2]; first compound 0.2 µM) | relative viability ([2]; first compound 0.6325 µM) | relative viability ([2]; first compound 2 µM) | relative viability (Sulindac + Foretinib; first compound 0.08 µM) | relative viability (Sulindac + Foretinib; first compound 0.253 µM) | relative viability (Sulindac + Foretinib; first compound 2.53 µM) | relative viability (Sulindac + Foretinib; first compound 8 µM) | relative viability ([3]; first compound 0.02 µM) | relative viability ([3]; first compound 0.2 µM) | relative viability ([3]; first compound 0.6325 µM) | relative viability ([3]; first compound 2 µM) | relative viability (Sulindac + Foretinib; first compound 0.8 µM)
1 | NCI-H1355 | 0.963 | 0.415 | 0.468 | 0.221 | 0.221 | 1.17 | 1.1 | 0.404 | 0.3 | 1.16 | 1.04 | 1.07 | 0.987 | 0.644 | 0.57 | 0.287 | 0.246 | –
2 | EKVX | 0.355 | 0.133 | 0.379 | 0.246 | 0.123 | 0.786 | – | 0.154 | 0.132 | 0.666 | 0.942 | 0.683 | 0.995 | 0.647 | – | 0.166 | 0.152 | 0.421
3 | NCI-H520 | 0.692 | 0.759 | 0.548 | 0.409 | 0.18 | 0.587 | 0.438 | 0.382 | 0.312 | 0.876 | 0.822 | 0.678 | 1.34 | 0.19 | 0.236 | 0.19 | 0.21 | –
4 | NCI-H1993 | 0.818 | 0.701 | 0.586 | 0.535 | 0.489 | 1.36 | 0.919 | 0.658 | 0.559 | 0.728 | 0.724 | 0.761 | 0.752 | 0.768 | 0.682 | 0.664 | 0.595 | 0.751
5 | HCC-78 | 0.537 | 0.459 | 0.429 | 0.486 | – | 0.471 | 0.546 | 0.525 | 0.274 | 0.512 | 0.547 | 0.566 | 0.556 | – | – | – | – | 0.585
6 | NCI-H2087 | 0.863 | 0.561 | 0.252 | 0.112 | 0.0962 | 0.884 | 0.757 | 0.599 | 0.497 | 1.44 | 1.1 | 1.22 | 1.29 | 0.168 | 0.162 | 0.16 | 0.142 | –
7 | H3255 | 0.884 | 0.357 | 0.292 | 0.211 | 0.183 | 0.804 | 0.867 | 0.684 | 0.544 | 0.962 | 0.853 | 0.879 | 0.827 | 0.945 | 1 | 0.83 | 0.741 | 0.678
8 | NCI-H2126 | 1.35 | 0.69 | 0.634 | 0.613 | 0.297 | 0.948 | 0.583 | 0.337 | 0.318 | 1.2 | 1.18 | 1.01 | 1.14 | 0.788 | 0.371 | 0.302 | 0.292 | 1.06
9 | LC-2-ad | 0.845 | 0.537 | 0.236 | 0.175 | 0.169 | 1.01 | 0.914 | 0.598 | 0.276 | 0.855 | 1.01 | 0.872 | 1.02 | 1.09 | 0.666 | 0.407 | 0.337 | 0.877
10 | SK-LU-1 | 0.267 | 0.192 | – | 0.119 | 0.132 | 1.12 | 1.34 | 1.18 | 0.981 | 0.981 | 0.977 | 0.751 | 0.955 | 0.196 | 0.216 | 0.231 | 0.193 | 0.993
11 | EBC-1 | 0.107 | 0.102 | 0.103 | 0.0621 | 0.0633 | 0.64 | 0.553 | 0.619 | 0.477 | 0.0937 | 0.0935 | 0.107 | 0.105 | – | – | – | – | –
12 | HCC-15 | 0.975 | – | 0.483 | 0.13 | 0.107 | 1.18 | 1.03 | 0.534 | 0.322 | 1.19 | 1.02 | 0.978 | 1.33 | 0.293 | 0.294 | 0.292 | 0.225 | 0.905
13 | NCI-H1563 | 0.696 | 0.612 | 0.575 | 0.611 | 0.463 | 0.895 | 0.859 | 0.841 | 0.718 | 0.98 | 1.02 | 0.89 | 0.99 | 0.49 | 0.478 | 0.499 | 0.488 | 0.912
14 | COR-L 105 | 0.439 | 0.389 | 0.322 | 0.341 | 0.231 | 0.662 | 0.704 | 0.597 | 0.401 | 0.871 | 0.904 | 0.783 | 1.44 | 0.638 | 0.909 | 0.685 | 0.439 | 1.18
15 | NCI-H647 | 0.886 | 0.709 | 0.535 | 0.143 | 0.0766 | 0.925 | 1.15 | 0.992 | 0.61 | 1.25 | 1.2 | 1.25 | 1.28 | 0.166 | 0.157 | 0.243 | 0.136 | 1.05
16 | LU99A | 0.739 | 0.505 | 0.342 | 0.264 | 0.219 | 1.08 | 1.14 | 1.01 | 0.593 | 0.87 | 0.808 | 0.791 | 0.926 | 0.245 | 0.281 | 0.234 | – | 0.934
17 | NCI-H1703 | 0.303 | 0.246 | 0.196 | 0.2 | 0.156 | 0.326 | 0.36 | 0.314 | 0.365 | 0.276 | 0.389 | 0.382 | 0.377 | – | – | – | – | 0.355
18 | NCI-H2170 | 1.04 | – | 0.866 | 0.382 | 0.307 | – | – | – | – | 1.1 | 0.547 | 0.978 | 1.01 | 0.507 | 0.541 | 0.503 | 0.3 | 1.05
19 | NCI-H2342 | 1.01 | 0.816 | 0.486 | 0.516 | 0.4 | – | – | – | – | 0.86 | 0.952 | 0.948 | 1.07 | 0.807 | 0.731 | 0.616 | 0.467 | 1.02
